This is an account of results in patent US10179782B2, “Substituted sulfonamide compounds” (Genentech, Inc., priority 2016, dated 2019).

The structures appear in SMILES notation.

The target of the experiment is T1, human TRPA1 (Homo sapiens, UniProt O75762).
T1 construct: expressed in transfected cells; host or cells: CHO cells
Kind of experiment: TRPA1 FLIPR Tetra calcium influx assay in CHO cells (block of cinnamaldehyde-induced calcium influx). In kind it is cell-based. The settings on record: Table 2; CHO cells expressing TRPA1; agonist cinnamaldehyde 75 uM; 20 min compound incubation; Hill coefficient fixed to 1.5; read-out: hTRPA1 CHO Ca2+ AUC EVO (IC50). The essentials: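 CHO cells expressing TRPA1 were loaded with calcium dye in HBSS/20 mM HEPES, pH 7.4, 0.02% BSA, then given compound for 20 min at room temperature before ~EC80 cinnamaldehyde (75 µM human, 45 µM rat). Block of calcium influx was read on FLIPR Tetra; IC50 fitted with Hill coefficient fixed at 1.5.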

T1 sequence (O75762 whole entry): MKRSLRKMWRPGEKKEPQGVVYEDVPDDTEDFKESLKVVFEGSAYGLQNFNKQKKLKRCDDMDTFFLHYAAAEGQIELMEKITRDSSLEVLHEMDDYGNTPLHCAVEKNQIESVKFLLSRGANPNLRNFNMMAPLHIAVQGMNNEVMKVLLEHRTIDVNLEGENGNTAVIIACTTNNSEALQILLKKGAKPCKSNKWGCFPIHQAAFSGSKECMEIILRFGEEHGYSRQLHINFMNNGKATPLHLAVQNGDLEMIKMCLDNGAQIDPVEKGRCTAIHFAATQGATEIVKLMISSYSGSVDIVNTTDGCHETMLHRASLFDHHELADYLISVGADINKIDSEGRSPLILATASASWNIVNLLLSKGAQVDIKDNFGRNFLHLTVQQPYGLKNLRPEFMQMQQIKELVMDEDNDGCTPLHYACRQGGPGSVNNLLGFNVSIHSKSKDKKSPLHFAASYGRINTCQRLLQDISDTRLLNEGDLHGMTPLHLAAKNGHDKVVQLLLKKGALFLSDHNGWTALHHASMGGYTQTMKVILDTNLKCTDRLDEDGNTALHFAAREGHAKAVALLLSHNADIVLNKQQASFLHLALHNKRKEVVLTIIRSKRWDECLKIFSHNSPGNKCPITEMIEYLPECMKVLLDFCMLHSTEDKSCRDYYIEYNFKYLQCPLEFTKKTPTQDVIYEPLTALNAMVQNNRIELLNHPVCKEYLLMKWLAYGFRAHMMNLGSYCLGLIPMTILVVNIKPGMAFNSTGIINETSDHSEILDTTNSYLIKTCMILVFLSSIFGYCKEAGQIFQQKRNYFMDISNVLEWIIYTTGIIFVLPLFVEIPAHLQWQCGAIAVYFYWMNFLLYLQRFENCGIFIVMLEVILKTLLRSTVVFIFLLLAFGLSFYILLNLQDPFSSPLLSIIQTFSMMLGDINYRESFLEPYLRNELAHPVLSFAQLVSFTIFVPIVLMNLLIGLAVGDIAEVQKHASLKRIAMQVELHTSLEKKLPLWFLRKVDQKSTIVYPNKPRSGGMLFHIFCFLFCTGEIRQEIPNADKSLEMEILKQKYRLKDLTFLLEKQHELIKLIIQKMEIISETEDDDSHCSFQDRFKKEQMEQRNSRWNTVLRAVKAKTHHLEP

Consider `CC(C)Oc1nc(CNC(=O)[C@@H]2C[C@@H](F)CN2S(=O)(=O)c2ccc(F)cc2)cc(-c2cnc(C(F)(F)F)nc2)n1` [Example 60, (2S,4R)-4-fluoro-1-(4-fluorophenyl)sulfonyl-N-[[2-isopropoxy-6-[2-(trifluoromethyl)pyrimidin-5-yl]pyrimidin-4-yl]methyl]pyrrolidine-2-carboxamide], for which the half-inhibitory concentration (IC50) turned out to be 83.1 nM. In the case of `O=C(NCc1cc(-c2cnc(C(F)(F)F)nc2)ncc1F)[C@@H]1CC[C@H](C(F)(F)F)N1S(=O)(=O)c1ccc(F)cc1` [Example 61, (2S,5R)-1-(4-fluorophenyl)sulfonyl-N-[[5-fluoro-2-[2-(trifluoromethyl)pyrimidin-5-yl]-4-pyridyl]methyl]-5-(trifluoromethyl)pyrrolidine-2-carboxamide], the IC50 turned out to be 21.6 nM. Take `C[C@H]1[C@H](F)C[C@@H](C(=O)NCc2cn(-c3cnc(C(F)(F)F)nc3)nc2Cl)N1S(=O)(=O)c1ccc(F)cc1` [Example 62, (2S,4R,5S)-N-[[3-chloro-1-[2-(trifluoromethyl)pyrimidin-5-yl]pyrazol-4-yl]methyl]-4-fluoro-1-(4-fluorophenyl)sulfonyl-5-methyl-pyrrolidine-2-carboxamide]: the concentration for half-maximal inhibition (IC50) came to 58.2 nM. Take `O=C(NCc1cc(-c2cnc(C(F)(F)F)nc2)ncc1Cl)[C@@H]1[C@H]2C[C@H]2CN1S(=O)(=O)c1ccc(F)cc1` [Example 63, (1S,2S,5R)-N-[[5-chloro-2-[2-(trifluoromethyl)pyrimidin-5-yl]-4-pyridyl]methyl]-3-(4-fluorophenyl)sulfonyl-3-azabicyclo[3.1.0]hexane-2-carboxamide]: the IC50 amounted to 6.16 nM. On to `N#Cc1cc(F)c(-c2cnc(C(F)(F)F)nc2)cc1CNC(=O)[C@@H]1C[C@@H](F)CN1S(=O)(=O)c1ccc(F)cc1` [Example 64, (2S,4R)-N-[[2-cyano-4-fluoro-5-[2-(trifluoromethyl)pyrimidin-5-yl]phenyl]methyl]-4-fluoro-1-(4-fluorophenyl)sulfonyl-pyrrolidine-2-carboxamide], for which the IC50 worked out at 44.5 nM.

Take `O=C(NCc1cc(-c2cnc(C(F)(F)F)nc2)ncn1)[C@@H]1[C@H]2C[C@H]2CN1S(=O)(=O)c1ccc(F)cc1` [Example 65, (1S,2S,5R)-3-(4-fluorophenyl)sulfonyl-N-[[6-[2-(trifluoromethyl)pyrimidin-5-yl]pyrimidin-4-yl]methyl]-3-azabicyclo[3.1.0]hexane-2-carboxamide]: the IC50 was found to be 64.8 nM.

With `CCc1cc(CNC(=O)[C@@H]2C[C@@H](F)CN2S(=O)(=O)c2ccc(F)cc2)cc(-c2cnc(C(F)(F)F)nc2)n1` [Example 66, (2S,4R)-N-[[2-ethyl-6-[2-(trifluoromethyl)pyrimidin-5-yl]-4-pyridyl]methyl]-4-fluoro-1-(4-fluorophenyl)sulfonyl-pyrrolidine-2-carboxamide], the concentration for half-maximal inhibition (IC50) stood at 76.9 nM. Turning to `O=C(NCc1cc(-c2cnc(C(F)(F)F)nc2)nc(C2CC2)c1)[C@@H]1C[C@@H](F)CN1S(=O)(=O)c1ccc(F)cc1` [Example 67, (2S,4R)-N-[[2-cyclopropyl-6-[2-(trifluoromethyl)pyrimidin-5-yl]-4-pyridyl]methyl]-4-fluoro-1-(4-fluorophenyl)sulfonyl-pyrrolidine-2-carboxamide], the IC50 turned out to be 65.1 nM. The same measure for `O=C(NCc1ccc(F)c(-c2cnc(C(F)(F)F)nc2)c1)[C@@H]1[C@@H]2[C@H](CN1S(=O)(=O)c1ccc(F)cc1)C2(F)F` [Example 69, (1R,4S,5S)-6,6-difluoro-3-(4-fluorophenyl)sulfonyl-N-[[4-fluoro-3-[2-(trifluoromethyl)pyrimidin-5-yl]phenyl]methyl]-3-azabicyclo[3.1.0]hexane-4-carboxamide]: 45.7 nM; for `O=C(NCc1cc(-c2cnc(C(F)(F)F)nc2)ncc1F)[C@@H]1[C@@H]2[C@H](CN1S(=O)(=O)c1ccc(F)cc1)C2(F)F` [Example 71, (1S,2S,5R)-6,6-difluoro-N-((5-fluoro-2-(2-(trifluoromethyl)pyrimidin-5-yl)pyridin-4-yl)methyl)-3-((4-fluorophenyl)sulfonyl)-3-azabicyclo[3.1.0]hexane-2-carboxamide]: 46.2 nM; for `CC1(C)[C@@H]2[C@@H](C(=O)NCc3cc(-c4cnc(C(F)(F)F)nc4)ncc3F)N(S(=O)(=O)c3ccc(F)cc3)C[C@@H]21` [Example 72, (1S,4S,5R)-3-(4-fluorophenyl)sulfonyl-N-[[5-fluoro-2-[2-(trifluoromethyl)pyrimidin-5-yl]-4-pyridyl]methyl]-6,6-dimethyl-3-azabicyclo[3.1.0]hexane-4-carboxamide]: 14.7 nM. The same measure for `O=C(NCc1cc(-c2cnc(C(F)(F)F)nc2)nc(C2CC2)n1)[C@@H]1C[C@@H](F)CN1S(=O)(=O)c1ccc(F)cc1` [Example 73, (2S,4R)-N-[[2-cyclopropyl-6-[2-(trifluoromethyl)pyrimidin-5-yl]pyrimidin-4-yl]methyl]-4-fluoro-1-(4-fluorophenyl)sulfonyl-pyrrolidine-2-carboxamide]: 56.7 nM; for `O=C(NCc1cc(-c2cnc(C(F)(F)F)nc2)c(F)cc1F)[C@@H]1C[C@@H](F)CN1S(=O)(=O)c1ccc(F)cc1` [Example 74, (2S,4R)-N-[[2,4-difluoro-5-[2-(trifluoromethyl)pyrimidin-5-yl]phenyl]methyl]-4-fluoro-1-(4-fluorophenyl)sulfonyl-pyrrolidine-2-carboxamide]: 65.1 nM; for `C[C@@]1(F)C[C@@H](C(=O)NCc2cc(Cl)nc(-c3cnc(C(F)(F)F)nc3)c2)N(S(=O)(=O)c2ccc(F)cc2)C1` [Example 75, (2S,4R)-N-[[2-chloro-6-[2-(trifluoromethyl)pyrimidin-5-yl]-4-pyridyl]methyl]-4-fluoro-1-(4-fluorophenyl)sulfonyl-4-methyl-pyrrolidine-2-carboxamide]: 66.6 nM.

`O=C(NCc1cc(-c2cnc(C(F)(F)F)nc2)cc(F)c1F)[C@@H]1C[C@@H](F)CN1S(=O)(=O)c1ccc(F)cc1` [Example 76, (2S,4R)-N-[[2,3-difluoro-5-[2-(trifluoromethyl)pyrimidin-5-yl]phenyl]methyl]-4-fluoro-1-(4-fluorophenyl)sulfonyl-pyrrolidine-2-carboxamide]: the IC50 was 39.3 nM. The same measure for `O=C(NCc1ccc(F)c(-c2cnc(C(F)(F)F)s2)c1)[C@@H]1C[C@@H](F)CN1S(=O)(=O)c1ccc(F)cc1` [Example 77, (2S,4R)-4-fluoro-1-(4-fluorophenyl)sulfonyl-N-[[4-fluoro-3-[2-(trifluoromethyl)thiazol-5-yl]phenyl]methyl]pyrrolidine-2-carboxamide]: 73.3 nM; for `CC1(C)[C@@H]2[C@@H](C(=O)NCc3ccc(F)c(-c4cnc(C(F)(F)F)nc4)c3)N(S(=O)(=O)c3ccc(F)cc3)C[C@@H]21` [Example 78, (1S,4S,5R)-3-(4-fluorophenyl)sulfonyl-N-[[4-fluoro-3-[2-(trifluoromethyl)pyrimidin-5-yl]phenyl]methyl]-6,6-dimethyl-3-azabicyclo[3.1.0]hexane-4-carboxamide]: 23.4 nM; for `COC[C@H]1CC[C@@H](C(=O)NCc2cc(-c3cnc(C(F)(F)F)nc3)ncc2F)N1S(=O)(=O)c1ccc(F)cc1` [Example 80, (2S,5R)-N-((5-fluoro-2-(2-(trifluoromethyl)pyrimidin-5-yl)pyridin-4-yl)methyl)-1-((4-fluorophenyl)sulfonyl)-5-(methoxymethyl)pyrrolidine-2-carboxamide]: 98.2 nM. Next, `C[C@H]1[C@H](F)C[C@@H](C(=O)NCc2cc(N3CC(OC(F)(F)F)C3)nc(C3CC3)n2)N1S(=O)(=O)c1ccc(F)cc1` [Example 81, (2S,4R,5S)-N-[[2-cyclopropyl-6-[3-(trifluoromethoxy)azetidin-1-yl]pyrimidin-4-yl]methyl]-4-fluoro-1-(4-fluorophenyl)sulfonyl-5-methyl-pyrrolidine-2-carboxamide]: 55.3 nM; `C[C@H]1[C@H](F)C[C@@H](C(=O)NCc2cc(OCCOC(F)(F)F)c(F)cn2)N1S(=O)(=O)c1ccc(F)cc1` [Example 82, (2S,4R,5S)-4-fluoro-1-(4-fluorophenyl)sulfonyl-N-[[5-fluoro-4-[2-(trifluoromethoxy)ethoxy]-2-pyridyl]methyl]-5-methyl-pyrrolidine-2-carboxamide]: 166 nM; `C[C@H]1[C@H](F)C[C@@H](C(=O)NCc2cc(OCC3(C(F)(F)F)CC3)nc(C3CC3)n2)N1S(=O)(=O)c1ccc(F)cc1` [Example 83, (2S,4R,5S)-N-[[2-cyclopropyl-6-[[1-(trifluoromethyl)cyclopropyl]methoxy]pyrimidin-4-yl]methyl]-4-fluoro-1-(4-fluorophenyl)sulfonyl-5-methyl-pyrrolidine-2-carboxamide]: 147 nM. The same measure for `C[C@H]1[C@H](C#N)C[C@@H](C(=O)NCc2cc(-c3cnc(C(F)(F)F)nc3)ncc2F)N1S(=O)(=O)c1ccc(F)cc1` [Example 84, (2S,4R,5S)-4-cyano-1-(4-fluorophenyl)sulfonyl-N-[[5-fluoro-2-[2-(trifluoromethyl)pyrimidin-5-yl]-4-pyridyl]methyl]-5-methyl-pyrrolidine-2-carboxamide]: 65.3 nM. Take `C[C@H]1[C@H](F)C[C@@H](C(=O)NCc2cc(-c3cnc(C(F)(F)F)s3)c(F)cn2)N1S(=O)(=O)c1ccc(F)cc1` [Example 85, (2S,4R,5S)-4-fluoro-1-(4-fluorophenyl)sulfonyl-N-[[5-fluoro-4-[2-(trifluoromethyl)thiazol-5-yl]-2-pyridyl]methyl]-5-methyl-pyrrolidine-2-carboxamide]: the IC50 stood at 33.7 nM.

In the case of `C[C@H]1[C@H](F)C[C@@H](C(=O)NCc2cc(-c3cnc(C(F)(F)F)nc3)c(C#N)cn2)N1S(=O)(=O)c1ccc(F)cc1` [Example 86, (2S,4R,5S)-N-[[5-cyano-4-[2-(trifluoromethyl)pyrimidin-5-yl]-2-pyridyl]methyl]-4-fluoro-1-(4-fluorophenyl)sulfonyl-5-methyl-pyrrolidine-2-carboxamide], the concentration for half-maximal inhibition (IC50) was found to be 124 nM.

As a reminder, the IC50 is the concentration at which inhibition is half-maximal.
